The subject of assay [1] is Staphylococcus epidermidis. Briefly: Antimicrobial activity against Staphylococcus epidermidis assessed as diameter of growth inhibition zone at 0.25 ug/ml after 24 hr by well diffusion method. It counts as functional. Conditions: read-out: DIZ. (A growth-free zone around the sample is the usual read-out of agar diffusion tests.)
In assay [2] the test system is Salmonella typhi. Briefly: Antimicrobial activity against Salmonella enterica subsp. enterica serovar Typhi H NCTC 901.8394 assessed as diameter of growth inhibition zone at 0.25 ug/ml after 24 hr by well-diffusion method. Type of assay: functional. Conditions: H NCTC 901.8394, 24 h, read-out: DIZ.
The test system of assay [3] is Candida albicans. The assay can be described thus: Antimicrobial activity against Candida albicans Y-1200-NIH assessed as diameter of growth inhibition zone at 0.25 ug/ml after 24 hr by well-diffusion method. Conditions: read-out: DIZ. It counts as functional.
The test system of assay [4] is Shigella dysenteriae. The assay can be described thus: Antimicrobial activity against Shigella dysenteriae type 10 NCTC 9351 assessed as diameter of growth inhibition zone at 0.25 ug/ml after 24 hr by well diffusion method. Type of assay: functional. The following applies: type 10 NCTC 9351, 24 h, read-out: DIZ.
The test system of assay [5] is Escherichia coli. The assay can be described thus: Antimicrobial activity against Escherichia coli ATCC 1280 assessed as diameter of growth inhibition zone at 0.25 ug/ml after 24 hr by well-diffusion method. It counts as functional. Conditions: ATCC 1280, 24 h, read-out: DIZ.
In assay [6] the test system is Staphylococcus aureus. Briefly: Antimicrobial activity against Staphylococcus aureus ATCC 25923 assessed as diameter of growth inhibition zone at 0.25 ug/ml after 24 hr by well-diffusion method. Type of assay: functional. The following applies: ATCC 25923, 24 h, read-out: DIZ.
Assay [7] relates to Listeria monocytogenes. Briefly: Antimicrobial activity against Listeria monocytogenes ATCC 19115 assessed as diameter of growth inhibition zone at 0.25 ug/ml after 24 hr by well-diffusion method. Type of assay: functional. Conditions: ATCC 19115, 24 h, read-out: DIZ.
Assay [8] has as its system Brucella abortus. Briefly: Antimicrobial activity against Brucella abortus (A.99, UK-1995) RSKK03026 assessed as diameter of growth inhibition zone at 0.25 ug/ml after 24 hr by well-diffusion method. It counts as functional. The following applies: (A.99, UK-1995) RSKK03026, 24 h, read-out: DIZ.
Assay [9] concerns Micrococcus luteus. Briefly: Antimicrobial activity against Micrococcus luteus ATCC 9341 assessed as diameter of growth inhibition zone at 0.25 ug/ml after 24 hr by well-diffusion method. Type of assay: functional. The following applies: ATCC 9341, 24 h, read-out: DIZ.
The test system of assay [10] is Staphylococcus aureus. The assay can be described thus: Antimicrobial activity against Staphylococcus aureus ATCC 25923 assessed as diameter of growth inhibition zone at 30 ug after 24 hr by well-diffusion method. Type of assay: functional. Conditions: ATCC 25923, 24 h, read-out: DIZ.
Assay [11] concerns Salmonella typhi. Briefly: Antimicrobial activity against Salmonella enterica subsp. enterica serovar Typhi H NCTC 901.8394 assessed as diameter of growth inhibition zone at 30 ug after 24 hr by well-diffusion method. Type of assay: functional. The following applies: H NCTC 901.8394, 24 h, read-out: DIZ.
Assay [12] concerns Escherichia coli. Briefly: Antimicrobial activity against Escherichia coli ATCC 1280 assessed as diameter of growth inhibition zone at 30 ug after 24 hr by well-diffusion method. It counts as functional. The following applies: ATCC 1280, 24 h, read-out: DIZ.
For assay [13], the system named is Listeria monocytogenes. Briefly: Antimicrobial activity against Listeria monocytogenes ATCC 19115 assessed as diameter of growth inhibition zone at 30 ug after 24 hr by well-diffusion method. Type of assay: functional. The following applies: ATCC 19115, 24 h, read-out: DIZ.
Assay [14] has as its system Brucella abortus. Briefly: Antimicrobial activity against Brucella abortus (A.99, UK-1995) RSKK03026 assessed as diameter of growth inhibition zone at 30 ug after 24 hr by well-diffusion method. It counts as functional. Conditions: (A.99, UK-1995) RSKK03026, 24 h, read-out: DIZ.
Assay [15] deals with Escherichia coli. The assay can be described thus: microbe, parasite or virus in culture. Conditions: ATCC 1280, 24 h, read-out: DIZ.
Assay [16] relates to Salmonella typhi. The assay can be described thus: Antimicrobial activity against Salmonella enterica subsp. enterica serovar Typhi H NCTC 901.8394 assessed as diameter of growth inhibition zone at 25 ug after 24 hr by well-diffusion method. Type of assay: functional. Conditions: H NCTC 901.8394, 24 h, read-out: DIZ.
The subject of assay [17] is Listeria monocytogenes. The assay can be described thus: Antimicrobial activity against Listeria monocytogenes ATCC 19115 assessed as diameter of growth inhibition zone at 25 ug after 24 hr by well-diffusion method. Type of assay: functional. The following applies: ATCC 19115, 24 h, read-out: DIZ.
Assay [18] relates to Staphylococcus aureus. Briefly: Antimicrobial activity against Staphylococcus aureus ATCC 25923 assessed as diameter of growth inhibition zone at 25 ug after 24 hr by well-diffusion method. Conditions: ATCC 25923, 24 h, read-out: DIZ. Type of assay: functional.
The subject of assay [19] is Listeria monocytogenes. Briefly: Antimicrobial activity against Listeria monocytogenes ATCC 19115 assessed as diameter of growth inhibition zone at 10 ug after 24 hr by well-diffusion method. The following applies: ATCC 19115, 24 h, read-out: DIZ. Type of assay: functional.
For assay [20], the system named is Staphylococcus aureus. The assay can be described thus: Antimicrobial activity against Staphylococcus aureus ATCC 25923 assessed as diameter of growth inhibition zone at 10 ug after 24 hr by well-diffusion method. It counts as functional. Conditions: ATCC 25923, 24 h, read-out: DIZ.
Assay [21] relates to Escherichia coli. Briefly: Antimicrobial activity against Escherichia coli ATCC 1280 assessed as diameter of growth inhibition zone at 10 ug after 24 hr by well-diffusion method. It counts as functional. The following applies: ATCC 1280, 24 h, read-out: DIZ.
Assay [22] concerns Salmonella typhi. The assay can be described thus: Antimicrobial activity against Salmonella enterica subsp. enterica serovar Typhi H NCTC 901.8394 assessed as diameter of growth inhibition zone at 10 ug after 24 hr by well-diffusion method. Type of assay: functional. Conditions: H NCTC 901.8394, 24 h, read-out: DIZ.

In the case of `C[C@@H](/N=C/c1cc(F)cc(Cl)c1O)C(=O)O`, the zone of inhibition at 0.25 µg/mL in [1] was found to be 12 mm; in assay [2], 11.5 mm; in [3], 15 mm; in assay [4] it was 11.5 mm; in assay [5], 15.5 mm; in assay [6], 16 mm. The zone of inhibition at 0.25 µg/mL in [7] is 12.5 mm; in assay [8], 17.5 mm; in [9], 23.5 mm.

For the compound `O=C(O)C/N=C/c1cc(F)ccc1O`, the zone of inhibition at 0.25 µg/mL in assay [1] amounted to 6 mm; in assay [2], 15 mm; in [3], 10 mm; in assay [4] it was 11 mm; in [5], 13 mm; in [6], 7 mm. Besides, the zone of inhibition at 0.25 µg/mL in [7] was 10 mm; in [8], 11.5 mm; in assay [9] it was 15 mm.

Regarding `NC[C@H]1O[C@H](O[C@H]2[C@H](O)[C@@H](O[C@H]3O[C@H](CO)[C@@H](O)[C@H](N)[C@H]3O)[C@H](N)C[C@@H]2N)[C@H](O)[C@@H](O)[C@@H]1O` [KANAMYCIN], the zone of inhibition at 30 µg/disc in assay [10] came out at 25 mm; in assay [11] it was 20 mm; in [12] it was 25 mm; in [13], 15 mm.

For `CC1(C)[C@H](C(=O)O)N2C(=O)C[C@H]2S1(=O)=O` [SULBACTAM], in [14], the zone of inhibition at 30 µg/disc amounted to 12 mm.

With `Cc1cc(NS(=O)(=O)c2ccc(N)cc2)no1` [SULFAMETHOXAZOLE], the zone of inhibition at 25 µg/disc in [15] was determined as 18 mm; in assay [16] it was 17 mm; in assay [17] it was 11 mm; in assay [18] it was 24 mm.

Consider `CC1(C)S[C@@H]2[C@H](NC(=O)[C@H](N)c3ccccc3)C(=O)N2[C@H]1C(=O)O` [AMPICILLIN], for which the zone of inhibition at 10 µg/disc in [19] came to 16 mm; in assay [20] it was 30 mm; in assay [21] it was 10 mm; in [22], 11 mm.

As to `CC1(C)S[C@@H]2[C@H](NC(=O)[C@H](N)c3ccc(O)cc3)C(=O)N2[C@H]1C(=O)O` [AMOXICILLIN], the zone of inhibition at 30 µg/disc in assay [10] was 30 mm; in [11], 19 mm; in assay [12], 14 mm; in assay [13], 22 mm.

Take `C[C@@H](/N=C/c1cc(F)ccc1O)C(=O)O`: the zone of inhibition at 0.25 µg/mL in [1] is 5 mm; in [3], 12.5 mm; in assay [5], 10 mm; in assay [6] it was 6 mm; in assay [7] it was 6.5 mm; in assay [8] it was 10.5 mm. Further, the zone of inhibition at 0.25 µg/mL in assay [9] was found to be 14 mm.

Turning to `O=C(O)C/N=C/c1cc(F)cc(Cl)c1O`, the zone of inhibition at 0.25 µg/mL in assay [1] came to 12.5 mm; in [2], 18 mm; in assay [3], 15.5 mm; in assay [4], 18 mm; in assay [5], 16 mm; in [6], 18.5 mm. Further, the zone of inhibition at 0.25 µg/mL in assay [7] stood at 10 mm; in assay [8], 15 mm; in assay [9] it was 26.5 mm.
